Data as given in patent publication US20170247336A1 (MERCK SHARP & DOHME CORP., priority 2014, published 2017).
Structures can show the parent of a compound that is named as a salt.

Columns and labels:
[1] = Pharmacokinetics (half life) in rat after intravenous administration; format: in vivo; settings: plasma, male Wistar Han rats; for half-life: male, Wistar Han, rat, iv, 0.5 mg/kg, read-out: Half Life (t1/2) (converted)
Method: The half life of compounds described in this application were evaluated in rat. Shown in Table 9 are T½ of selected examples in rat (Wister Han) for selected compounds of the present invention. In addition Table 9 includes half life data for compounds disclosed in International Patent Application published as WO 2013/043621.
The pharmacokinetics of the compounds disclosed in Table 9 were studied in male Wistar Han rats after intravenous (IV) administration. For IV dosing at 0.5 mg/kg in rat, compounds were formulated as a solution in DMSO/PEG400/water (20/60/20, by vol.). Plasma samples obtained from dosed animals were prepared for analysis by means of a single step protein precipitation technique by adding 200 μL of acetonitrile to 50 μL aliquots of individual subject samples. Samples were mixed by vortex for homogeneity and then subjected to centrifugation at 3500 rpm for 10 min. The supernatant (200 μL) was collected and injected into the LC-MS/MS for analysis. Pharmacokinetic parameters were calculated using established non-compartmental methods.

[2] = biological target: T1, human HIF-PHD2 (Homo sapiens, UniProt Q9GZT9); experiment: HIF-PHD2 inhibition: hydroxylation of HIF-1α peptide, time resolved fluorescence; format: biochemical; settings: FLAG-tagged full length PHD2; 0.2 μM 2-oxoglutarate, 0.5 μM HIF-1α peptide
T1 construct: FLAG-tagged full length PHD2 expressed in and purified from baculovirus-infected Sf9 cells; FLAG; made in house; host or cells: baculovirus-infected Sf9 cells
Method: To each well of a 384-well plate, 1 μL of test compounds in DMSO (final concentration ranging from 0.3 nM to 10 μM) were added into 20 μl of assay buffer (50 mM Tris pH 7.4/0.01% Tween-20/0.1 mg/ml bovine serum albumin/10 μM ferrous sulfate/1 mM sodium ascorbate/20 μg/ml catalase) containing 0.15 μg/ml FLAG-tagged full length PHD2 expressed in and purified from baculovirus-infected Sf9 cells. After a 5 min preincubation at room temperature, the enzymatic reactions were initiated by the addition of 4 μL of substrates {final concentrations of 0.2 μM 2-oxoglutarate and 0.5 μM HIF-1α peptide biotinyl-DLDLEMLAPYIPMDDDFQL (SEQ ID NO: 1)}. After incubation for 45 minutes at room temperature, the reactions were terminated by the addition of a 25 μL quench/detection mix to a final concentration of 1 mM ortho-phenanthroline, 0.1 mM EDTA, 0.5 nM anti-(His)6 LANCE reagent (Perkin-Elmer Life Sciences), 100 nM AF647-labeled streptavidin (Invitrogen), and 2 μg/ml (His)6-VHL complex {S. Tan Protein Expr. Purif. 21, 224-234 (2001)} and the signals were developed for 30 minutes at room temperature. The ratio of time resolved fluorescence signals at 665 and 620 nm was determined, and percent inhibition was calculated relative to the high control samples (DMSO treated) run in parallel, after background subtraction.

T1 sequence (Q9GZT9 whole entry): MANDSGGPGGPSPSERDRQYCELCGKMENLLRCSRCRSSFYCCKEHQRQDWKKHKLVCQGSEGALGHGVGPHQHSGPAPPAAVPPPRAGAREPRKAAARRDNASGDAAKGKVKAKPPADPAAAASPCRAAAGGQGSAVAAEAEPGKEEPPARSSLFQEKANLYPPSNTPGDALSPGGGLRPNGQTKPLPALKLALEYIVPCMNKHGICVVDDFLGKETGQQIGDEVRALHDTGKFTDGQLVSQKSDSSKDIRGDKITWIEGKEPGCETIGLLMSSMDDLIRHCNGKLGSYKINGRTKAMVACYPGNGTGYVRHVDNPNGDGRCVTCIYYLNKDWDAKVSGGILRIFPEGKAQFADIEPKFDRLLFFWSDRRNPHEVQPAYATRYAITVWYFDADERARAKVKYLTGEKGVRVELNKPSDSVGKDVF

## CC(NC(=O)c1cnc(C(=O)NCCC(=O)O)nc1O)c1ccc(-c2ccc(F)cc2)cc1 (racemic) [Example 44, 3-(5-((1-(4′-fluoro-[1,1′-biphenyl]-4-yl)ethyl)carbamoyl)-4-hydroxypyrimidine-2-carboxamido)propanoic acid]
[1]
  half-life: 0.69 h
[2]
  IC50: 2.5 nM

## COc1ccc(C(NC(=O)c2cnc(C(=O)NCCC(=O)O)nc2O)c2ccc3c(c2)CCO3)cc1 (stereo not shown) [Example 39, 3-(5-(((2,3-dihydrobenzofuran-5-yl)(4-methoxyphenyl)methyl)carbamoyl)-4-hydroxypyrimidine-2-carboxamido)propanoic acid]
[1]
  half-life: 1.59 h
[2]
  IC50: 1.7 nM

## O=C(N[C@@H](Cc1c[nH]c2ccccc12)C(=O)O)c1ncc(C(=O)NC(c2ccccc2)c2ccccc2)c(O)n1 [Example 6, (2S)-2-(5-(benzhydrylcarbamoyl)-4-hydroxypyrimidine-2-carboxamido)-3-(3aH-indo1-3-yl)propanoic acid]
[1]
  half-life: 1.68 h
[2]
  IC50: 8.9 nM

## O=C(O)CCNC(=O)c1ncc(C(=O)NC(c2ccccc2)c2ccccc2)c(O)n1 [Example 2-11 from WO2013/040789, reference compound]
[1]
  half-life: 0.28 h

## COc1ccc(C(NC(=O)c2cnc(C(=O)NCC(C)C(=O)O)nc2O)c2ccc3cc(OC)ccc3n2)cc1 (single isomer, unassigned) [Example 14, (R) or (S)-3-(4-hydroxy-5-(((4-methoxyphenyl)(6-methoxyquinolin-2-yl)methyl)carbamoyl)pyrimidine-2-carboxamido)-2-methylpropanoic acid]
[1]
  half-life: 1.36 h
[2]
  IC50: 16 nM

## O=C(NCC1(C(=O)O)CC1)c1ncc(C(=O)NC(c2ccccc2)c2ccccc2)c(O)n1 [Example 4, 1-((5-(benzhydrylcarbamoyl)-4-hydroxypyrimidine-2-carboxamido)methyl)cyclopropanecarboxylic acid]
[1]
  half-life: 4.78 h
[2]
  IC50: 8.5 nM

## O=C(O)CCNC(=O)c1ncc(C(=O)NC2(c3ccc(Br)cc3)CC2)c(O)n1 [Example 45, 3-(5-((1-(4-bromophenyl)cyclopropyl)carbamoyl)-4-hydroxypyrimidine-2-carboxamido)propanoic acid]
[1]
  half-life: 0.62 h
[2]
  IC50: 0.4 nM

## O=C(O)c1cc(-c2ncc(C(=O)NC(c3ccccc3)c3ccccc3)c(O)n2)no1 [Example 2-16 from WO2013/040789, reference compound]
[1]
  half-life: 0.3 h

## CC(CNC(=O)c1ncc(C(=O)NC2(c3ccc(Br)cc3)CC2)c(O)n1)C(=O)O (single isomer, unassigned) [Example 16, (R) or (S)-3-(5-((1-(4-bromophenyl)cyclopropyl)carbamoyl)-4-hydroxypyrimidine-2-carboxamido)-2-methylpropanoic acid]
[1]
  half-life: 0.88 h
[2]
  IC50: 1.3 nM

## C[C@@H](CNC(=O)c1ncc(C(=O)NC(c2ccccc2)c2ccccc2)c(O)n1)C(=O)O (single isomer, unassigned) [Example 1]
[1]
  half-life: 1.9 h
[2]
  IC50: 2.3 nM

## COc1ccc([C@H](NC(=O)c2cnc(C(=O)NCCC(=O)O)nc2O)c2ccccc2)cc1 [Example 37]
[1]
  half-life: 0.69 h
[2]
  IC50: 2.4 nM

## C[C@H](CNC(=O)c1ncc(C(=O)NC(c2ccccc2)c2ccccc2)c(O)n1)C(=O)O (single isomer, unassigned) [Example 2]
[1]
  half-life: 1.45 h
[2]
  IC50: 1.7 nM

## O=C(NC[C@H](O)C(=O)O)c1ncc(C(=O)NC(c2ccccc2)c2ccccc2)c(O)n1 [Example 7, (S)-3-(5-(benzhydrylcarbamoyl)-4-hydroxypyrimidine-2-carboxamido)-2-hydroxypropanoic acid]
[1]
  half-life: 1.02 h
[2]
  IC50: 1.4 nM

## O=C(O)CNC(=O)c1ncc(C(=O)NC(c2ccccc2)c2ccccc2)c(O)n1 [Example 2-12 from WO2013/040789, reference compound]
[1]
  half-life: 0.56 h

## COc1ccc([C@@H](NC(=O)c2cnc(C(=O)NCCC(=O)O)nc2O)c2ccccc2)cc1 [Example 36]
[1]
  half-life: 6.76 h
[2]
  IC50: 2.7 nM

## CC(CNC(=O)c1ncc(C(=O)NC2(c3ccc(Br)cc3)CC2)c(O)n1)C(=O)O (single isomer, unassigned) [Example 17, (R) or (S)-3-(5-((1-(4-bromophenyl)cyclopropyl)carbamoyl)-4-hydroxypyrimidine-2-carboxamido)-2-methylpropanoic acid]
[1]; IV 0.5 mg/kg
  Half Life (t1/2): 1.36 h
[2]
  IC50: 0.8 nM

## CC(CNC(=O)c1ncc(C(=O)NC(C)(C)c2ccc(-c3cc[nH]n3)cc2)c(O)n1)C(=O)O (single isomer, unassigned) [Example 27, (R) or (S)-5-((2-(4-(1H-pyrazol-3-yl)phenyl)propan-2-yl)carbamoyl)-2-((2-carboxypropyl)carbamoyl)-6-hydroxypyrimidin-1-ium formate]
[2]
  IC50: 5.8 nM

## CC(CNC(=O)c1ncc(C(=O)NC(c2ccc(Cl)cc2)c2ccc(Cl)cc2)c(O)n1)C(=O)O (stereo not shown) [Example 13]
[2]
  IC50: 4.88 nM

## CC(O)(CNC(=O)c1ncc(C(=O)NC(c2ccccc2)c2ccccc2)c(O)n1)C(=O)O (stereo not shown) [Example 3, 3-(5-(Benzhydrylcarbamoyl)-4-hydroxypyrimidine-2-carboxamido)-2-hydroxy-2-methylpropanoic acid]
[2]
  IC50: 4.1 nM

## O=C(NCC(O)C(=O)O)c1ncc(C(=O)NC(c2ccccc2)c2ccccc2)c(O)n1 (stereo not shown) [Example 5, 3-(5-(benzhydrylcarbamoyl)-4-hydroxypyrimidine-2-carboxamido)-2-hydroxypropanoic acid]
[2]
  IC50: 0.9 nM

## COc1ccc(C(NC(=O)c2cnc(C(=O)NCC(C)C(=O)O)nc2O)c2ccc(OC)cc2)cc1 (single isomer, unassigned) [Example 15, (R) or (S)-3-(5-((bis(4-methoxyphenyl)methy)carbamoyl)-4-hydroxypyrimidine-2-carboxamido)-2-methylpropanoic acid]
[1]
  half-life: 0.99 h
[2]
  IC50: 10 nM

## COc1ccc(-c2ccc(C(C)(C)NC(=O)c3cnc(C(=O)NCC(C)C(=O)O)nc3O)cc2)cn1 (single isomer, unassigned) [Example 26, (R) or (S)-2-((2-carboxypropyl)carbamoyl)-6-hydroxy-5-((2-(4-(6-methoxypyridin-3-yl)phenyl)propan-2-yl)carbamoyl)pyrimidin-1-ium chloride]
[2]
  IC50: 3.4 nM

## CC(CNC(=O)c1ncc(C(=O)NC2(c3ccc(-c4cccc5cnccc45)cc3)CC2)c(O)n1)C(=O)O (single isomer, unassigned) [Example 31, (R) or (S)-2-((2-carboxypropyl)carbamoyl)-6-hydroxy-5-((1-(4-(isoquinolin-5-yl)phenyl)cyclopropyl)carbamoyl)pyrimidin-1-ium formate]
[2]
  IC50: 10 nM
